Experimental data: ChEMBL document CHEMBL2010699, “Novel substituted 9-norbornylpurines and their activities against RNA viruses” (Bioorg Med Chem Lett, 2012)
pEC50: −log10 of the molar value. In brackets after ≈: the same amount, converted by molar mass. Activity calls are given as the source filed them. The rule behind the calls is not given here.

Tests used:
[1] = Solubility of the compound in water at 20 degC by UV spectrophotometry; type: physicochemical
Coxsackievirus B3 [2] = assay: Antiviral activity against Coxsackievirus B3 infected in african green monkey Vero cells assessed as inhibition virus-induced cell death by MTS assay; type: functional, organism-based; details: Enterovirus B
Hepatitis C virus = assay: Antiviral activity against Hepatitis C virus assessed as suppression of viral replication; type: functional, organism-based; details: Hepacivirus hominis
[3] = Cytotoxicity against african green monkey Vero cells assessed as inhibition of host metabolism by MTS assay; type: cell-based; details: chlorocebus sabaeus
Chikungunya virus = assay: Antiviral activity against Chikungunya virus assessed as suppression of viral replication; type: functional
[4] = Selectivity index, ratio of CC50 for african green monkey Vero cells to EC50 for Coxsackievirus B3; type: toxicity, cell-based; details: read-out: Ratio CC50/EC50
Coxsackievirus B3 [5] = assay: Antiviral activity against Coxsackievirus B3 infected in african green monkey vero cells assessed as inhibition of virus-induced cytopathic effect by microscopic estimation; type: functional, organism-based
Vero = assay: Cytotoxicity against african green monkey Vero cells assessed as change in morphology of the cells by microscopic analysis; type: cell-based; details: chlorocebus sabaeus

SMILES | solubility [1] [µg/mL] | pEC50 (Coxsackievirus B3 [2]) | EC90 (Coxsackievirus B3 [2]) [µM] | Activity (Hepatitis C virus) | CC50 [3] [µM] | Activity (Chikungunya virus) | selectivity ratio [4] | Activity (Coxsackievirus B3 [5]) | Activity (Vero)
Clc1ncnc2c1ncn2C1CC2CCC1C2 (stereo unspecified) | 530 (≈ 2.13 mM) | – | – | – | – | – | – | – | –
O=C(OC1CC2CC1CC2n1cnc2c(Cl)ncnc21)c1ccccc1 (stereo unspecified) | – | < 3.82 | > 150 | inactive | > 542 | inactive | – | – | –
O=C(OC1CC2CC1C(n1cnc3c(Cl)ncnc31)C2)c1ccccc1 (stereo unspecified) | – | 4.46 | > 45 | inactive | 45 | inactive | 1.3 | – | –
C[C@@]1(O)[C@H](O)[C@@H](CO)O[C@H]1n1ccc(N)nc1=O | – | 4.03 | 179 | – | – | – | – | – | –
CCCCCC(=O)O[C@H]1C[C@H]2C[C@@H]1[C@H](n1cnc3c(Cl)ncnc31)C2 (relative stereo) | – | < 4.15 | > 70 | inactive | 70 | inactive | < 1 | – | –
CCCCCCCC(=O)O[C@H]1C[C@H]2C[C@@H]1[C@H](n1cnc3c(Cl)ncnc31)C2 (relative stereo) | – | < 4.30 | > 50 | inactive | 50 | inactive | < 1 | – | –
CCCCCCCCCC(=O)O[C@H]1C[C@H]2C[C@@H]1[C@H](n1cnc3c(Cl)ncnc31)C2 (relative stereo) | – | < 4.36 | > 44 | inactive | 44 | inactive | < 1 | – | –
CCCCCC(=O)O[C@H]1C[C@H]2C[C@@H]1C[C@@H]2n1cnc2c(Cl)ncnc21 (relative stereo) | – | 4.47 | 56 | inactive | 60 | inactive | 1.8 | Active | Non-toxic
CCCCCCCC(=O)O[C@H]1C[C@H]2C[C@@H]1C[C@@H]2n1cnc2c(Cl)ncnc21 (relative stereo) | – | < 4.28 | > 52 | inactive | 52 | inactive | < 1 | – | –
CCCCCCCCCC(=O)O[C@H]1C[C@H]2C[C@@H]1C[C@@H]2n1cnc2c(Cl)ncnc21 (relative stereo) | – | 4.49 | > 47 | inactive | 47 | inactive | 1.5 | Active | Non-toxic
CO[C@H]1C[C@H]2C[C@@H]1C[C@@H]2n1cnc2c(Cl)ncnc21 (relative stereo) | – | 4.57 | 37 | inactive | > 718 | inactive | > 27 | Active | Non-toxic
CCCCCO[C@H]1C[C@H]2C[C@@H]1C[C@@H]2n1cnc2c(Cl)ncnc21 (relative stereo) | – | 4.68 | > 32 | inactive | 32 | inactive | 1.5 | – | –
CCCCCCO[C@H]1C[C@H]2C[C@@H]1C[C@@H]2n1cnc2c(Cl)ncnc21 (relative stereo) | – | < 4.57 | > 27 | inactive | 27 | inactive | < 1 | – | –
Clc1ncnc2c1ncn2[C@H]1C[C@H]2C[C@@H]1C[C@@H]2OC1CCCCC1 (relative stereo) | – | < 4.66 | > 22 | inactive | 22 | inactive | < 1 | – | –
Clc1ncnc2c1ncn2[C@H]1C[C@H]2C[C@@H]1C[C@@H]2Oc1ccccc1 (relative stereo) | – | < 4.30 | > 50 | inactive | 50 | inactive | < 1 | – | –
Clc1ncnc2c1ncn2[C@@H]1C[C@@H]2C[C@H]1[C@@H](Oc1ccccc1)C2 (relative stereo) | – | < 3.82 | > 150 | inactive | > 587 | inactive | – | – | –
Oc1ccc(O[C@H]2C[C@H]3C[C@@H]2C[C@@H]3n2cnc3c(Cl)ncnc32)cc1 (relative stereo) | – | 4.24 | – | inactive | 217 | inactive | 3.7 | – | –
OCCO[C@H]1C[C@H]2C[C@@H]1C[C@@H]2n1cnc2c(Cl)ncnc21 (relative stereo) | – | 4.43 | – | inactive | > 648 | inactive | > 18 | Active | Non-toxic
OCCCO[C@H]1C[C@H]2C[C@@H]1C[C@@H]2n1cnc2c(Cl)ncnc21 (relative stereo) | – | 4.33 | – | inactive | > 620 | inactive | > 13 | Active | Non-toxic
OCCCCO[C@H]1C[C@H]2C[C@@H]1C[C@@H]2n1cnc2c(Cl)ncnc21 (relative stereo) | – | 4.43 | 53 | inactive | > 594 | inactive | > 16 | Active | Non-toxic
OCCCCCO[C@H]1C[C@H]2C[C@@H]1C[C@@H]2n1cnc2c(Cl)ncnc21 (relative stereo) | – | 4.66 | 30 | inactive | > 570 | inactive | > 26 | Active | Non-toxic
OCCOCCO[C@H]1C[C@H]2C[C@@H]1C[C@@H]2n1cnc2c(Cl)ncnc21 (relative stereo) | 7460 (≈ 21.1 mM) | 4.38 | 60 | inactive | > 567 | inactive | > 14 | Active | Non-toxic
OCCO[C@H]1C[C@H]2C[C@@H]1[C@H](n1cnc3c(Cl)ncnc31)C2 (relative stereo) | – | 4.54 | 37 | inactive | > 648 | inactive | > 22 | Active | Non-toxic
OCCO[C@@H]1C[C@H]2C[C@@H]1C[C@@H]2n1cnc2c(Cl)ncnc21 (relative stereo) | 4570 (≈ 14.8 mM) | 4.80 | 32 | inactive | > 648 | inactive | > 41 | Active | Non-toxic
OCCO[C@@H]1C[C@H]2C[C@@H]1[C@H](n1cnc3c(Cl)ncnc31)C2 (relative stereo) | 4690 (≈ 15.2 mM) | 4.89 | 22 | inactive | > 648 | inactive | > 50 | Active | Non-toxic
